From publication PMC6337650 (Molecules, 2018)

Tests used:
[1] = MTT antiproliferative assay, BEL-7402; format: cell-based, human; details: human, BEL-7402 liver cancer cells versus normal L02 cells; BEL-7402 vs L02
Procedure, shortened: (§1)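 Cells seeded at 9 × 10^3 per well, allowed 24 h to adhere, then exposed 48 h to compound at 1, 10, 50 and 100 µM. MTT added to 2 mg/mL for 4 h, formazan dissolved in DMSO, OD read at 492 nm; inhibition calculated relative to untreated and blank wells.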

BEL-7402 cells = test: MTT antiproliferative assay, BEL-7402; format: cell-based, human
Procedure, shortened: as §1

HCT-116 cells [2] = test: Colony formation assay; format: cell-based; details: Homo sapiens, HCT-116, 168 h, 7 days, read-out: inhibition rate of colony formation
Procedure: Exponentially growing determined HCT-116 cells (6 × 10^2 per well) were plated in 6-well plates with the Roswell Park Memorial Institute (RPMI) 1640 culture medium (Gibco, USA) containing with 10% fetal bovine serum (FBS) (Gibco, Waltham, MA, USA). After an overnight incubation, the culture medium was removed and replaced fresh medium. Then, the cells were treated with various concentrations of compound 5d (5, 10 and 15 μM) dissolved in DMSO. Some cells were treated with DMSO only as a negative control. The cells were then incubated for another 7 days. Finally, the cells were fixed with 4% paraformaldehyde for 30 min and stained with 0.1% crystal violet for 15 min at room temperature, after which, the staining was washed with PBS until the colonies were totally cleared.

HCT-116 cells [3] = test: Cell cycle analysis by flow cytometry (PI); format: cell-based, human; details: 24 h; for proportion of cells in the S phase: control 18.64%; for proportion of cells in the G1 phase: control 70.67%
Procedure: HCT-116 cells were plated in 6-well plates (5.0 × 10^5 cells per well) and incubated at 37 °C for 24 h. Exponentially growing cells were then incubated with compound 5d at 5 and 15 µM. After 24 h, untreated cells (control) or cells treated with compound 5d were centrifuged at 1000 rpm for 10 min and then fixed in 70% ethanol at −20 °C for at least 24 h. The cells were subsequently resuspended in phosphate-buffered saline (PBS) containing 0.1 mg/mL of RNase A and 5 µg/mL propidium iodide (PI). The cellular DNA content for the cell cycle distribution analysis was measured by flow cytometry using a FACSCalibur flow cytometer with Cell Quest software (Becton-Dickinson, Franklin Lakes, NJ, USA), plotting at least 30,000 events per sample. The percentage of cells in the G1, S and G2 phases of the cell cycle were determined using the ModFit LT version 4.0 software package (Verity Software, Topsham, ME, USA).

Cyclin E1 = test: Western blot, cyclin E1 in HCT-116 cells; format: cell-based, human; details: HCT-116, 5, 10 and 15 μM, 24 h, concentration-dependent
Procedure: HCT-116 cells were cultured with different concentrations of compound 5d for 24 h. Then, the floating cells was collected and washed two times with ice cold PBS. The pellet was resuspended in lysis buffer. After the cells were lysed on ice for 20 min, lysates were centrifuged at 12,000 rpm at 4 °C for 15 min. The protein concentration in the supernatant was determined using BCA protein assay reagents. Equal amounts of protein (50 μg) were resolved using sodium dodecyl sulphate-polyacrylamide gel electrophoresis (SDS-PAGE) (8−12% acrylamide gels) and transferred to a PVDF Hybond-P membrane. Membranes were blocked with PBS containing 5% non-fat milk for 1 h at room temperature. Membranes were then incubated with primary antibodies against Cyclin A (ENT1167, Elabscience, Wuhan, China), Cyclin E1 (ENT1176, Elabscience, Wuhan, China), Cyclin B1 (ENT1169, Elabscience, Wuhan, China) and β-actin (ENM0028, Elabscience, Wuhan, China), with gentle rotation overnight at 4 °C. Membranes were next incubated with fluorescent secondary antibodies for 2 h. Proteins were detected by electrochemiluminescence (Bio-Rad, Hercules, CA, USA).

SMILES: Cc1ccc(-n2cc(CNC(=O)COC(=O)[C@]3(C)CCC[C@@]4(C)[C@@H]5CC[C@@]6(C)C[C@]5(CC[C@@H]43)CC6=O)nn2)cc1 [Compound 5d, 2-oxo-2-(((1-(p-tolyl)-1H-1,2,3-triazol-4-yl)methyl)amino)ethyl(4R,4aS,6aR,9S,11aR,11bS)-4,9,11b-trimethyl-8-oxotetradecahydro-6a,9-methanocyclohepta[a]naphthalene-4-carboxylate]
- selectivity ratio at 48 h [1]: 11.2
- inhibition at 100 µM (BEL-7402 cells; Homo sapiens, Bel-7402, 100 μM, 48 h, MTT, mean ± SD, n=3, read-out: % Growth Inhibition at 100 μM BEL-7402): 86.5 ± 0.87%
- IC50 (BEL-7402 cells; Homo sapiens, Bel-7402, 48 h, MTT, mean ± SD, n=3): 15.9 ± 0.41 µM
- Selectivity Index BEL-7402 (BEL-7402 cells; IC50 on normal cells (L02)/IC50 on cancer cells): 10.12
- fold more active than 5-FU (BEL-7402 cells; against BEL-7402 cells): 1.3 fold
- inhibition at 15 µM (HCT-116 cells [2]): 84%
- proportion of cells in the S phase (HCT-116 cells [3]; 5 μM): 25.70%
- proportion of cells in the G1 phase (HCT-116 cells [3]; 5 μM): 51.67%
- proportion of cells in the S phase (HCT-116 cells [3]; 15 μM): 42.31%
- proportion of cells in the G1 phase (HCT-116 cells [3]; 15 μM): 41.32%
- cyclin E1 protein level (Cyclin E1): decreased
